In data set [1] the test system is HDAC (HeLa cell extract). Nature of the data set: Primary assay: deacetylase activity, HeLa cell extract as source of HDAC. Type of data set: biochemical, human. Conditions: read-out: HDAC Inhibition (IC50 unless otherwise specified) HeLa. On the procedure: Decreased activity indicates increased inhibition by the test compound.
Alternatively, the activity of the compounds as HDAC inhibitors was determined using a commercially available fluorescent assay kit: (Fluor de Lys™, BioMol Research Labs, Inc., Plymouth Meeting, USA).
Extensive comparative studies have shown that Primary Assay (1) and Primary Assay (2), discussed above, yield equivalent results. Primary Assay results reported herein are (a) exclusively from (1); (b) exclusively from (2); or (c) from both (1) and (2).
The HeLa cell extract was made from HeLa cells (ATCC Ref. No. CCL-2) by freeze-thawing three times in 60 mM Tris Cl pH 8.0, 450 mM NaCl, 30% glycerol. Two cell volumes of extraction buffer were used, and particulate material was centrifuged out (20800 g, 4° C., 10 minutes). The supernatant extract having deacetylase activity was aliquotted and frozen for storage.

For data set [2], the system named is HeLa cells. Kind of data set: Secondary assay: cell proliferation WST-1, HeLa. Type of data set: cell-based. Conditions: Homo sapiens, read-out: Cell Proliferation Inhibition WST-1 (IC50 unless otherwise specified) HeLa. The source says: Compounds with HDAC inhibition activity, as determined using the primary assay, were subsequently evaluated using secondary cell-based assays. The following cell lines were used: • HeLa—Human cervical adenocarcinoma cell line (ATCC ref. No. CCL-2). • K11—HPV E7 transformed human keratinocyte line provided by Pidder Jansen-Duerr, Institut für Biomedizinische Alternsforschung, Innsbruck, Austria. • NHEK-Ad—Primary human adult keratinocyte line (Cambrex Corp., East Rutherford, N.J., USA). • JURKAT—Human T-cell line (ATCC no. TIB-152). Assay Method
Cells were cultured, exposed to candidate compounds, and incubated for a time, and the number of viable cells was then assessed using the Cell Proliferation Reagent WST-1 from Boehringer Mannheim (Cat. No. […]), described below.
(§1) Cells were plated in 96-well plates at 3-10×10^3 cells/well in 100 μL of culture medium. The following day, different concentrations of candidate compounds were added and the cells incubated at 37° C. for 48 hours. Subsequently, 10 μL/well of WST-1 reagent was added and the cells reincubated for 1 hour. After the incubation time, absorbance was measured.
(§2) WST-1 is a tetrazolium salt which is cleaved to formazan dye by cellular enzymes. An expansion in the number of viable cells results in an increase in the overall activity of mitochondrial dehydrogenases in the sample. This augmentation in the enzyme activity leads to an increase in the amount of formazan dye formed, which directly correlates to the number of metabolically active cells in the culture. The formazan dye produced is quantified by a scanning multiwell spectrophotometer by measuring the absorbance of the dye solution at 450 nm wavelength (reference wavelength 690 nm).
(§3) IC50 values were calculated using the software package Prism 3.0 (GraphPad Software Inc., San Diego, Calif.), setting top value at 100 and bottom value at 0.
For orientation: Formazan colour is commonly taken as a measure of viable cells.

Data set [3] concerns K11 (HPV E7 transformed human keratinocyte line). Kind of data set: Secondary assay: cell proliferation WST-1, K11. The conditions noted are these: read-out: Cell Proliferation Inhibition WST-1 (IC50 unless otherwise specified) K11. Format: cell-based. The protocol:
(§4) Compounds with HDAC inhibition activity, as determined using the primary assay, were subsequently evaluated using secondary cell-based assays. […] Assay Method
as §1, §2, §3

Data set [4] has as its system JURKAT (human T-cell line). Kind of data set: Secondary assay: cell proliferation WST-1, Jurkat. Type of data set: cell-based. The conditions noted are these: Jurkat cells, 48 hours, read-out: Cell Proliferation Inhibition WST-1 (IC50 unless otherwise specified) Jurkat. The protocol:
as §4, §1, §2
Percent activity (% activity) in reducing the number of viable cells was calculated for each test compound as: % activity={(S^C−B)/(S^o−B)}×100 wherein S^C denotes signal measured in the presence of the compound being tested, S^o denotes signal measured in the absence of the compound being tested, and B denotes the background signal measured in blank wells containing medium only. […] IC50 values were calculated using the software package Prism 3.0 (GraphPad Software Inc., San Diego, Calif.), setting top value at 100 and bottom value at 0.

The test system of data set [5] is NHEK-Ad (primary human adult keratinocyte line). Nature of the data set: Secondary assay: cell proliferation WST-1, NHEK-Ad. Format: cell-based. The conditions noted are these: read-out: Cell Proliferation Inhibition WST-1 (IC50 unless otherwise specified) NHEK-AD. On the procedure: as §4, §1, §2, §3
The mark [6] stands for this setting: Homo sapiens, Keratinocyte, K11 cells, 48 hours.
Where [7] appears, read: Homo sapiens, Keratinocyte, 48 h.

Where two headings read alike, the source gives them in different places.

Turning to `O=C(O)c1ccc(C2(C(=O)Oc3ccc(C(=O)NO)cc3)CCCCC2)cc1` [PX119102, 4-[1-({4-[(Hydroxyamino)carbonyl]phenoxy}carbonyl)cyclohexyl]-benzoic acid], the melting point (as a rule, the temperature, or range, at which the solid turns liquid) is 169 to 170 °C. `COC(=O)c1ccc(C2(C(=O)Oc3ccc(C(=O)NO)cc3)CCCCC2)cc1` [PX118480, Methyl 4-[1-({4-[(hydroxyamino)carbonyl]phenoxy}carbonyl) -cyclohexyl]benzoate]: the melting point is 129 to 131 °C. Also, in data set [1], the IC50 was 0.025 µM. In addition, the IC50 in data set [2] (HeLa cells, 48 hours) came out at 7.9 µM. Moreover, in data set [3] (setting [6]), the IC50 came out at 1.65 µM. For the same compound, in data set [4] (Homo sapiens), the IC50 was found to be 0.78 µM. `O=C(NO)c1ccc(OC(=O)C2(c3c(F)cccc3Cl)CCCCC2)cc1` [PX119101, 4-[(Hydroxyamino)carbonyl]phenyl 1-(2-chloro-6-fluorophenyl) -cyclohexanecarboxylate]: the melting point lay within 101 to 102 °C.

The compound `O=C(NO)c1ccc(OC(=O)C2(c3cccc(F)c3)CCCCC2)cc1` [PX119061, 4-[(Hydroxyamino)carbonyl]phenyl 1-(3-fluorophenyl) -cyclohexanecarboxylate] gave a melting point of 150 to 151 °C. `COc1ccc(C2(C(=O)Oc3ccc(C(=O)NO)cc3)CCCC2)cc1` [PX119063, 4-[(Hydroxyamino)carbonyl]phenyl 1-(4-methoxyphenyl) -cyclopentanecarboxylate] yielded a melting point of 143 to 144 °C. Besides, the IC50 in data set [1] was found to be 0.085 µM. The IC50 in data set [2] (HeLa cells, 48 hours) stood at 4.9 µM. The compound `O=C(NO)c1ccc(OC(=O)C2(c3ccccc3F)CCCCC2)cc1` [PX119062, 4-[(Hydroxyamino)carbonyl]phenyl 1-(2-fluorophenyl) -cyclohexanecarboxylate] had a melting point of 125 to 126 °C. As to `COc1ccc(C2(C(=O)Oc3ccc(C(=O)NO)cc3)CCCCC2)cc1` [PX118478, 4-[(Hydroxyamino)carbonyl]phenyl 1-(4-methoxyphenyl)-cyclohexanecarboxylate], the melting point was 127 to 129 °C. Moreover, the IC50 in data set [1] came out at 0.023 µM. In addition, in data set [2] (HeLa cells, 48 hours), the IC50 is 4.6 µM. Moreover, the IC50 in data set [3] (setting [6]) came to 13.6 µM. Besides, in data set [4] (Homo sapiens), the IC50 was found to be 0.5 µM.

Take `CCOc1ccc(C2(C(=O)Oc3ccc(C(=O)NO)cc3)CCCCC2)cc1` [PX118925, 4-[(Hydroxyamino)carbonyl]phenyl 1-(4-ethoxyphenyl) -cyclohexanecarboxylate]: the melting point is 140 to 143 °C. The same measure, in the same setting: the result for `Cc1ccc(C2(C(=O)Oc3ccc(C(=O)NO)cc3)CCCCC2)cc1` [PX118966, 4-[(Hydroxyamino)carbonyl]phenyl 1-(4-methylphenyl) -cyclohexanecarboxylate] reads 59 to 60 °C; that for `O=C(NO)c1ccc(OC(=O)C2(c3ccc(Cl)cc3)CCCCC2)cc1` [PX119059, 4-[(Hydroxyamino)carbonyl]phenyl 1-(4-chlorophenyl) -cyclohexanecarboxylate], 145 to 146 °C.

Consider `CC(=O)Oc1ccc(C2(C(=O)Oc3ccc(C(=O)NO)cc3)CCCCC2)cc1` [PX118959, 4-[(Hydroxyamino)carbonyl]phenyl 1-[4-(acetyloxy)phenyl]-cyclohexanecarboxylate], for which the melting point worked out at 69 °C.

`CC(C)(C)OC(=O)c1ccc(C2(C(=O)Oc3ccc(C(=O)NO)cc3)CCCCC2)cc1` [PX118926, tert-Butyl 4-[1-({4-[(hydroxyamino)carbonyl]phenoxy}-carbonyl)cyclohexyl]benzoate]: the melting point is 143 to 147 °C (dec.).

For the compound `O=C(NO)c1ccc(OC(=O)C2(c3ccc(F)cc3Cl)CCCCC2)cc1` [PX119064, 4-[(Hydroxyamino)carbonyl]phenyl 1-(2-chloro-4-fluorophenyl) -cyclohexanecarboxylate], the melting point lay within 164 to 165 °C. For the compound `CC(/C=C/C(=O)NO)=C\[C@@H](C)C(=O)c1ccc(N(C)C)cc1` [TSA, Trichostatin A, reference compound], the IC50 in data set [2] (HeLa, 48 h) was 0.35 µM; in data set [3] (setting [7]) it was 0.38 µM; in data set [5] (setting [7]), 0.2 µM; in data set [4] (Homo sapiens) it was 0.042 µM. As to `O=C(NO)c1ccc(OC(=O)C2(c3ccc(F)cc3)CCCCC2)cc1` [PX119065, 4-[(Hydroxyamino)carbonyl]phenyl 1-(4-fluorophenyl) -cyclohexanecarboxylate], the melting point is 150 to 151 °C. The same measure, in the same setting: for `O=C(NO)c1ccc(OC(=O)C2(c3ccc(OC(=O)c4ccccc4)cc3)CCCCC2)cc1` [PX119085, 4-[1-({4-[(Hydroxyamino)carbonyl]phenoxy}carbonyl)cyclohexyl]-phenyl benzoate] the value was 114 to 115 °C.

`O=C(NO)c1ccc(OC(=O)C2(c3ccccc3)CCCCC2)cc1` [PX118479, 4-[(Hydroxyamino)carbonyl]phenyl 1-phenylcyclohexanecarboxylate] gave a melting point of 142 to 144 °C. Also, the IC50 in data set [1] stood at 0.052 µM. For the same compound, the IC50 in data set [2] (HeLa cells, 48 hours) stood at 13.7 µM. Further, the IC50 in data set [3] (setting [6]) stood at 21.3 µM. Further, in data set [4] (Homo sapiens), the IC50 stood at 1.25 µM.

For `O=C(NO)c1ccc(OC(=O)C2(c3ccc(O)cc3)CCCCC2)cc1` [PX119103, 4-[(Hydroxyamino)carbonyl]phenyl 1-(4-hydroxyphenyl) -cyclohexanecarboxylate], the melting point fell in the range of 93 to 94 °C.

Turning to `Nc1ccccc1NC(=O)c1ccc(CNC(=O)OCc2cccnc2)cc1` [MS-275, reference compound], the IC50 in data set [3] (K11 cells, 48 hours) amounted to 9.16 µM; in data set [5] (NHEK-AD cells, 48 hours) it was 3.1 µM; in data set [4], 0.365 µM.

As to oxamflatin [reference compound], the IC50 in data set [4] came out at 0.17 µM.

In turn, `CC(C)(C)C(=O)Oc1ccc(C2(C(=O)Oc3ccc(C(=O)NO)cc3)CCCCC2)cc1` [PX119086, 4-[(Hydroxyamino)carbonyl]phenyl 1-{4-[(2,2-dimethylpropanoyl)oxy]-phenyl}-cyclohexane-carboxylate] yielded a melting point of 124 to 125 °C.

These data come from patent publication US7465719B2, “Carbamic acid compounds comprising an ester or ketone linkage as HDAC inhibitors” (Topotarget UK Limited, priority 2003, dated 2008).
